Data on 34 molecules can be found in patent publication US20210139435A1, “PROSTAGLANDIN ANALOGS AND USES THEREOF” (Lifex Biolabs, Inc., priority 2019, published 2021).

SMILES strings stand for the structures.

The target in the experiment is T1, mouse Nurr1 full-length (Mus musculus, UniProt Q06219).
T1 construct: pcDNA3.1 Myc/His mouse Nurr1 full-length construct; expressed in transfected cells; host or cells: SK-N-BE2C
T1 sequence (Q06219 whole entry): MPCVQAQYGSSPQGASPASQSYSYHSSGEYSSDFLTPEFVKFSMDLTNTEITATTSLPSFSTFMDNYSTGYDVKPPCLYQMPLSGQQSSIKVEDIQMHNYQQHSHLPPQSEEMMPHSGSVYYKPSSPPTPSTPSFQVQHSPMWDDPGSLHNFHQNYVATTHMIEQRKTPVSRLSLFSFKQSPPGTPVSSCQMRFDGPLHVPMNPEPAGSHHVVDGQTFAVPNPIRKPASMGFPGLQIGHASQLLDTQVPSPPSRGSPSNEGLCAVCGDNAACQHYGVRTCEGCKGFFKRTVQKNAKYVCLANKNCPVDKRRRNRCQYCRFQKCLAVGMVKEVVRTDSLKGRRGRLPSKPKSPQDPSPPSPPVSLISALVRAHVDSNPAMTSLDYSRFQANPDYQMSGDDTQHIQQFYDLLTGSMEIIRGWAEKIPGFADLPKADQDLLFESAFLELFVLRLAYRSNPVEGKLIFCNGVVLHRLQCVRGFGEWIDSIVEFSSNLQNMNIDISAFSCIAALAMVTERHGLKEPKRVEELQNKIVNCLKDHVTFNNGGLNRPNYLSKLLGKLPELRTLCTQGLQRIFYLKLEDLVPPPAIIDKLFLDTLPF
Nature of the experiment: Luciferase reporter gene assay for Nurr1 transcriptional activity in SK-N-BE2C cells. In kind it is cell-based. As to conditions: relative activity over control (luminescence value; 1.0). Here is the method:
To investigate whether the PG analogs of the present invention activate Nurr1 function, the inventors of the present invention employed an reporter gene assay and examined the transcriptional activation as described in Kim, C.-H. et al., Proceedings of the National Academy of Sciences 112, 8756-8761, doi:10.1073/pnas.1509742112 (2015).
The gene assay was performed by Luciferase assay as described below:
[Protocol for Luciferase Assay to Determine Nurr1 Transcriptional Activity] • 1. SK-N-BE2C cells were maintained in HyClone™ DMEM High Glucose (Cat. No.: SH30022.01) with 10% (v/v) fetal bovine serum (FBS), 100 units/ml penicillin and 100 μg/ml streptomycin. • 2. Seed 1.5×10^5 SK-N-BE2C cells/well into a 24-well plate and incubate at 37° C. with 5% CO2 for 24 hours. • 3. After 24 hours, transfect cells with pcDNA3.1 Myc/His mouse Nurr1 full-length construct, firefly luciferase reporter vector (pGL-3 basic from Promega, Cat. No.:E1751; with appropriate response element cloned in) and Renilla luciferase control vector (pRL-null from Promega, Cat. No.:E2271) in the ratio of 8:1:1 (Nurr1: firefly: renilla) or 400 ng, 50 ng and 50 ng respectively, amounting to a total of 500 ng in the 50 μl transfection mix for 1 well. • 4. To make the transfection mix, first prepare the DNA with P3000 reagent by adding the appropriate amount of DNA with 1 μl P3000 reagent and top up with Opti-MEM® I Reduced-Serum Media (from ThermoFisher Scientific [Cat. No.: 31985070]) to 25 μl. Incubate for 5 minutes at room temperature. • 5. Make another mix consisting of 1 μl Lipofectamine 3000 reagent with 24 μl Opti-MEM® I Reduced-Serum Media per well. Add this Lipofectamine mix to the previous DNA-P3000 mix (after the previous 5 minute incubation) and incubate them for 15 minutes at room temperature. [P3000:Lipofectamine=1:1]. • 6. In the meantime, change the media in the sample wells with fresh DMEM media without antibiotics. • 7. After 15 minutes incubation, add the 50 μl transfection mix into each well and incubate the plate for 24 hours at 37° C. with 5% CO2. • 8. After 24 hours, change the media to normal DMEM media with antibiotics and add various doses of compounds into designated wells and incubate the plate for another 24 hours at 37° C. with 5% CO2. • 9. Following the 24-hour incubation period, luciferase assay can be conducted using Dual-Glo Luciferase® kit from Promega (Cat. No.: E2920). • 10. Lyse each tested wells for 15 minutes with 75 μl of passive lysis buffer provided in the Dual-Luciferase® kit from Promega (Cat. No.: E1910). [Alternatively, add 75 μl of PBS and 75 μl of Dual-Glo® Luciferase Reagent and incubate for 10 minutes at room temperature (cover the plate with foil to protect from light). Transfer the entire sample in each well to a Greiner CELLSTAR® 96-well white polystyrene plate then proceed to step 13]. • 11. After 15 minutes, transfer each lysed sample to a Greiner CELLSTAR® 96-well white polystyrene plate (Cat. No.:655083). • 12. To each well of lysed cells, add 75 μl of Dual-Glo® Luciferase Reagent and incubate for 10 minutes at room temperature (cover the plate with foil to protect from light). • 13. Set the measurement with a 10-second integrated measurement period. • 14. Add 75 μl of Dual-Glo® Stop & Glo® reagent into each well and incubate for 10 minutes before commencing with the same parameters as before to determine the RLU for the Renilla luciferase. • 15. The averaged reading for wells corresponding to non-transfected cells can be subtracted from each RLU reading and duplicate/triplicate readings can then be averaged. Normalization of the luminescence reading for each well can be carried out by dividing the firefly luciferase RLU with the corresponding Renilla luciferase RLU. Each drug-treated well can then be normalized against the averaged DMSO-treated well reading.
Turning to `CCCCC[C@H](O)/C=C/[C@H]1[C@H](O)CC(=O)[C@@H]1C/C=C\CCCC(=O)NC(CO)CO` [Compound 40, Prostaglandin E2 serinol amide], the “Fold activity (1 uM)” value was “C (below 1.0 (low activity))”.
For `CCCCC[C@H](O)C/C=C1/C(=O)C[C@H](O)[C@@H]1C/C=C\CCCC(=O)O` [Compound 41, D12-Prostaglandin D2], the “Fold activity (1 uM)” value is recorded as “C (below 1.0 (low activity))”.
As for `CCCCC[C@H](O)/C=C/[C@H]1[C@H](O)CC(=O)[C@@H]1CC(=O)CCCCC(=O)O` [Compound 42, 6-keto Prostaglandin E1], the entry is “A (above 2.0 (high activity))”; as for `CCCC1([C@H](O)C/C=C/[C@H]2[C@H](O)CC(=O)[C@@H]2C/C=C\CCCC(=O)O)CCC1` [Compound 43, CAY10408], “B (1.1~2.0 (moderate))”.
As for `CCCCC[C@H](O)/C=C/[C@H]1[C@H](O)CC(=O)[C@@H]1C/C=C/CCCC(=O)Oc1ccc(NC(C)=O)cc1` [Compound 44, Prostaglandin E2 p-acetamidophenyl ester], the entry is “A (above 2.0 (high activity))”; as for `CCCCCC(=O)/C=C/[C@H]1[C@H](O)CC(=O)[C@@H]1C/C=C\CCCC(=O)O` [Compound 45, 15-keto Prostaglandin E2], “B (1.1~2.0 (moderate))”; as for `O=C(O)CCCCC(=O)CC[C@H]1[C@H](O)CC(=O)[C@@H]1CCC(=O)O` [Compound 46, tetranor-PGEM], “C (below 1.0 (low activity))”.
Take `CCCCC[C@@H](O)/C=C/[C@H]1[C@H](C/C=C\CCCC(=O)O)C(=O)C[C@@H]1O` [Compound 47, ent-Prostaglandin E2]: the “Fold activity (1 uM)” value was “B (1.1~2.0 (moderate))”.
As for `CCCCC[C@H](O)/C=C/[C@H]1C(=O)C[C@H](O)[C@@H]1CCCCCCC(=O)O` [Compound 48, Prostaglandin D1], the entry is “C (below 1.0 (low activity))”.
As for `CCCCC[C@@](C)(O)/C=C/[C@H]1C(=O)C[C@H](O)[C@@H]1C/C=C\CCCC(=O)O` [Compound 49, 15(R)-15-methyl Prostaglandin D2], the entry is “C (below 1.0 (low activity))”; as for `CCCCC[C@H](O)/C=C/[C@H]1[C@H](O)CC(=O)[C@H]1CCCCCCC(=O)O` [Compound 50, 8-iso Prostaglandin E1], “A (above 2.0 (high activity))”; as for `CCCCC(C)(C)[C@@H](O)/C=C/[C@H]1[C@H](O)CC(=O)[C@@H]1CCCCCCC(=O)O` [Compound 51, 16,16-dimethyl Prostaglandin E1], “A (above 2.0 (high activity))”.
As for `CCCCC[C@H](O)/C=C/[C@H]1[C@H](O)CC(=O)[C@@H]1C/C=C\CCCC(=O)Oc1ccc(NC(=O)c2ccccc2)cc1` [Compound 52, Prostaglandin E2 p-benzamidophenyl ester], the entry is “A (above 2.0 (high activity))”; as for `CCCCC[C@@](C)(O)/C=C/[C@H]1[C@H](O)CC(=O)[C@@H]1C/C=C\CCCC(=O)O` [Compound 53, 15(R)-15-methyl Prostaglandin E2], “B (1.1~2.0 (moderate))”; as for `C[C@@H](O)CCC[C@H](O)/C=C/[C@H]1[C@H](O)CC(=O)[C@@H]1C/C=C\CCCC(=O)O` [Compound 54, 19(R)-hydroxy Prostaglandin E2], “A (above 2.0 (high activity))”.
Take `CCCCC[C@H](O)/C=C/[C@H]1C(=O)C[C@H](O)[C@@H]1C/C=C\CCCC(=O)OC` [Compound 55, Prostaglandin D2 methyl ester]: the “Fold activity (1 uM)” value was “C (below 1.0 (low activity))”.
Then `CCCCC[C@@H](O)/C=C/[C@H]1C(=O)C[C@H](O)[C@@H]1CCCCCCCO` [Compound 56, Prostaglandin D1 Alcohol], with “C (below 1.0 (low activity))”; and `CCCCC[C@](C)(O)/C=C/[C@H]1C(=O)C[C@H](O)[C@@H]1C/C=C\CCCC(=O)O` [Compound 57, 15(S)-15-methyl Prostaglandin D2], with “B (1.1~2.0 (moderate))”.
As for `CCCCC[C@H](O)CC[C@H]1[C@H](O)CC(=O)[C@@H]1CCCCCCC(=O)O` [Compound 58, 13,14-dihydro Prostaglandin E1], the entry is “A (above 2.0 (high activity))”; as for `O=C(O)CCCCCC[C@H]1C(=O)C[C@@H](O)[C@@H]1/C=C/[C@@H](O)Cc1ccccc1` [Compound 59, 16-phenyl tetranor Prostaglandin E1], “B (1.1~2.0 (moderate))”; as for `CCCCC[C@](C)(O)/C=C/[C@H]1[C@H](O)CC(=O)[C@@H]1C/C=C\CCCC(=O)O` [Compound 61, 15(S)-15-methyl Prostaglandin E2], “A (above 2.0 (high activity))”.
Take `CCCCCCC[C@H](O)/C=C/[C@H]1[C@H](O)CC(=O)[C@@H]1C/C=C\CCCC(=O)O` [Compound 62, 20-ethyl Prostaglandin E2]: the “Fold activity (1 uM)” value is recorded as “A (above 2.0 (high activity))”.
As for `CCCC[C@H](C)C[C@H](O)/C=C/[C@H]1[C@H](O)CC(=O)[C@@H]1CCCCC(CC(=O)O)OC` (stereo partly shown) [Compound 63, 3-methoxy Limaprost], the entry is “B (1.1~2.0 (moderate))”; as for `CCCCC[C@H](O)/C=C/[C@H]1C(=O)C[C@H](O)[C@@H]1C/C=C\CCCC(=O)O` [Compound 64, Prostaglandin D2], “B (1.1~2.0 (moderate))”; as for `O=C(O)CCC/C=C\CC1C(O)CC(=O)C1/C=C/C(O)CCc1ccccc1` (stereo not shown) [Compound 65, 17-phenyl trinor Prostaglandin D2], “C (below 1.0 (low activity))”.
Then `CCCCC[C@@H](O)CC[C@H]1[C@H](O)CC(=O)[C@@H]1CCCCCCC(=O)O` [Compound 66, 13,14-dihydro-15(R)-Prostaglandin E1], with “B (1.1~2.0 (moderate))”; and `CCCC[C@H](C)C[C@H](O)/C=C/[C@H]1[C@H](O)CC(=O)[C@@H]1CCCC/C=C/C(=O)O` [Compound 67, Limaprost], with “A (above 2.0 (high activity))”.
Then `CCCCC[C@H](O)/C=C/[C@H]1[C@H](O)CC(=O)[C@H]1C/C=C\CCCC(=O)O` [Compound 68, 8-iso Prostaglandin E2], with “A (above 2.0 (high activity))”; and `CCCCC(C)(C)[C@H](O)/C=C/[C@H]1[C@H](O)CC(=O)[C@@H]1C/C=C\CCCC(=O)O` [Compound 69, 16,16-dimethyl Prostaglandin E2], with “A (above 2.0 (high activity))”.
Regarding `CC/C=C\C[C@H](O)/C=C/[C@H]1[C@H](O)CC(=O)[C@@H]1C/C=C\CCCC(=O)O` [Compound 70, Prostaglandin E3], the “Fold activity (1 uM)” value is “A (above 2.0 (high activity))”.
Take `O=C(O)CCC/C=C\CC1C(=O)CC(O)C1/C=C/C(O)CC1CCCCC1` (stereo not shown) [Compound 71, 8-iso-16-cyclohexyl-tetranor Prostaglandin E2]: the “Fold activity (1 uM)” value was “B (1.1~2.0 (moderate))”.
Then `CCCCC[C@H](O)/C=C/[C@H]1C(=O)C[C@H](O)[C@@H]1C/C=C\CCCC(=O)NCCO` [Compound 72, Prostaglandin D2 Ethanolamide], with “C (below 1.0 (low activity))”.
As to `CCCCC[C@H](O)/C=C/[C@H]1[C@H](O)CC(=O)[C@@H]1CCCCCCC(=O)O` [Compound 73, Prostaglandin E1], the “Fold activity (1 uM)” value is reported as “A (above 2.0 (high activity))”.
`CCCCCC(=O)CCC1C(O)CC(=O)C1CCCCCCC(=O)O` (stereo not shown) [Compound 74, 13,14-dihydro-15-keto Prostaglandin E1]: the “Fold activity (1 uM)” value is reported as “B (1.1~2.0 (moderate))”.
